{"source": "patent US20050136020A1", "about": "“Silicone-free long-lasting shine hair care compositions” (priority 2003, published 2005)", "key": {"[1]": {"assay": "Solubility and visual clarity of PEG/PPG-8/3 Laurate in water and oils", "format": "physicochemical", "method": "Solubility is the ability of one substance to blend uniformly with another, e.g. solid in liquid or liquid in liquid. Clarity is determined visually. A turbidity meter may be used to measure clarity if the system is not absolutely clear. The solubility of PEG/PPG-8/3 Laurate is up to fifty percent (50%) in water. […] The solubility of PEG/PPG-8/3 Laurate is up to ten percent (10%) in sunflower oil and in castor oil. […] In soybean oil, it is clear at five percent (5%) and slightly hazy at ten percent (10%)."}, "Index of refraction": {"assay": "Index of refraction", "format": "physicochemical", "method": "Preferably, the hair care compositions of the present invention have PEG/PPG-8/3 Laurate. […] Refractive index impacts the overall clarity of the present composition. It is preferred to have an aqueous-based composition with a clear color for aesthetic appeal. The hair care compositions of the present invention have a Shine Index of at least 5 hours, preferably about 8 or more hours, and most preferably up to 18 hours or more, thereby providing for extended life shine. “Shine Index” as used herein is the length of time shine persists on treated hair, as evaluated in the test protocol described in Example 1."}}, "data": [{"substance": "PEG/PPG-8/3 Laurate", "values": [{"measurement": "solubility in castor oil", "setting": "[1]; in castor oil", "result": "≤ 10", "unit": "%"}, {"measurement": "clarity (visual) in soybean oil at 5%", "setting": "[1]; in soybean oil, five percent (5%)", "result": "clear"}, {"measurement": "clarity (visual) in soybean oil at 10%", "setting": "[1]; in soybean oil, ten percent (10%)", "result": "slightly hazy"}, {"measurement": "clarity (visual) in sunflower and castor oil", "setting": "[1]; in sunflower and castor oil, up to its solubility limit", "result": "clear and homogenous"}, {"measurement": "solubility in sunflower oil", "setting": "[1]; in sunflower oil", "result": "≤ 10", "unit": "%"}, {"measurement": "solubility in water", "setting": "[1]; in water", "result": "≤ 50", "unit": "%"}, {"measurement": "clarity (visual) in water", "setting": "[1]; in water, at concentrations up to its solubility limit", "result": "clear and homogeneous"}, {"measurement": "index of refraction", "setting": "Index of refraction", "result": "about 1.456"}]}]}
